Results on six molecules are retold here after US6586420B1, “Quinolinecarboxylic acid derivative or its salt” (Wakunaga Pharmaceutical Co., Ltd., priority 1999, dated 2003).

In one series the test system is female ICR mouse. Briefly: Test on phototoxicity (ear erythema after UV exposure). Type of series: in vivo. Particulars: 40 mg/kg/10 mL intravenous, UV 320 to 400 nm for 4 hours; for Phototoxicity average score (ears): 0 point no abnormality to 3 points heavy erythema or edema. As for the experimental part:
(2) Test on Phototoxicity
The phototoxicity was tested in accordance with the following method.
After intravenous administration (40 mg/kg/10 mL) of each of the test compounds to a female ICR mouse (5-6 week old), the mouse was exposed to ultraviolet rays (320 to 400 nm, 1.8 mW/cm^2/sec) for 4 hours.
no abnormality (0 point); slight erythema (1 point); medium erythema (2 points); and heavy erythema or edema (3 points)

The subject of the next series is P. aeruginosa IFO3445. In words: Test on antibacterial action (MIC, standard method of Japan Society of Chemotherapy). It counts as cell-based. The settings on record: for MIC: Pseudomonas aeruginosa, read-out: minimum growth inhibitory concentration (MIC). The method, then: (§1) (1) Test on Antibacterial Action
(§2) In accordance with the standard method established by Japan Society of Chemotherapy (CHEMOTHERAPY, 29(1),76(1981)), the minimum growth inhibitory concentration (MIC: μg/mL) was measured.

The next series relates to E. coli NIHJ-JC2. The series is described as above. Type of series: cell-based. Particulars: for MIC: Escherichia coli, NIHJJC2, read-out: minimum growth inhibitory concentration (MIC). The method, then:
as §1, §2

For the next series, the system named is S. aureus Smith. The series is described as above. It counts as cell-based. Particulars: for MIC: Staphylococcus aureus, read-out: minimum growth inhibitory concentration (MIC). As for the experimental part: as §1, §2
Another series deals with MRSA W200. The series is described as above. Type of series: cell-based. The settings on record: for MIC: Staphylococcus aureus, read-out: minimum growth inhibitory concentration (MIC). The method, then: as §1, §2
For another series, the system named is B. subtilis ATCC6633. The series is described as above. The settings on record: for MIC: Bacillus subtilis, read-out: minimum growth inhibitory concentration (MIC). Type of series: cell-based. The method, then:
as §1, §2

For another series, the system named is S. epidermidis IFO12293. The series is described as above. It counts as cell-based. The settings on record: for MIC: Staphylococcus epidermidis, read-out: minimum growth inhibitory concentration (MIC). As for the experimental part: as §1, §2
The next series has as its system K. peumoniae KC-1. The series is described as above. It counts as cell-based. Particulars: for MIC: read-out: minimum growth inhibitory concentration (MIC). As for the experimental part: as §1, §2
In a further series the test system is S. aureus 209P. The series is described as above. Type of series: cell-based. The settings on record: for MIC: Staphylococcus aureus, read-out: minimum growth inhibitory concentration (MIC). As for the experimental part: as §1, §2
A short description of series [1]: Test on photostability (UV spectra after UVA exposure of solution). Type of series: physicochemical. Particulars: solution in 0.08% NaOH diluted 100-fold with PBS(-); UVA (black light) up to 20 minutes; UV spectra 190 to 400 nm. The method, then:
(2) Test on Photostability
The test on photostability was made in accordance with the following method.
With 0.08% NaOH, 1 mg/mL of the test compound was prepared. The resulting solution was diluted 100-fold with PBS(−). Into the wells of a 24-well plate, 1.5 ml portions of the diluted solution were poured, respectively. Just after the solution was exposed to UVA under an UV light (black light, product of Toshiba Corporation) for 0, 2, 5, 10 and 20 minutes, UV spectra within a range of 190 to 400 nm were measured (“UV-240”, product of Shimadzu Corporation).

Values after ≈ are worked out from the molar mass of the structure shown.

`NC1CCN(c2nc3c(cc2F)c(=O)c(C(=O)O)cn3-c2ccc(F)cc2F)C1` (racemic) [Tosufloxacin, (±)-7-(3-amino-1-pyrrolidinyl)-6-fluoro-1-(2,4-difluorophenyl)-1,4-dihydro-4-oxo-1,8-naphthyridine-3-carboxylic acid]: the Phototoxicity frequency in the series on female ICR mouse (0 hour after exposure) is 4/5; in the series with female ICR mouse (24 hours after exposure), 4/5; with female ICR mouse (48 hours after exposure), 1/5. The results for the “Phototoxicity average score (ears)” value in the series on female ICR mouse (0 hour after exposure), in the series with female ICR mouse (24 hours after exposure) and with female ICR mouse (48 hours after exposure) were 1.8, 0.8 and 0.2, respectively.
On to `O=C(O)c1cn(C2CC2)c2cc(N3CCNCC3)c(F)cc2c1=O` [Ciprofloxacin, 1-cyclopropyl-6-fluoro-7-(1-piperazinyl)-1,4-dihydro-4-oxoquinoline-3-carboxylic acid], for which the MIC with P. aeruginosa IFO3445 amounted to 0.39 µg/mL (≈ 1.18 µM); with E. coli NIHJ-JC2, 0.013 µg/mL (≈ 0.0392 µM); in the series on S. aureus Smith, 0.2 µg/mL (≈ 0.604 µM); in the series with MRSA W200, 0.78 µg/mL (≈ 2.35 µM); in the series on B. subtilis ATCC6633 it was 0.05 µg/mL (≈ 0.151 µM); in the series with S. epidermidis IFO12293 it was 0.78 µg/mL (≈ 2.35 µM). In addition, the MIC amounted to 0.025 µg/mL (≈ 0.0754 µM) with K. peumoniae KC-1 and 0.2 µg/mL (≈ 0.604 µM) in the series on S. aureus 209P.
Take `Nc1nc(-n2cc(C(=O)O)c(=O)c3cc(F)c(N4CC(O)C4)c(Cl)c32)c(F)cc1F.OC1CNC1` [Comparative compound 1, 1-(6-amino-3,5-difluoropyridin-2-yl)-8-chloro-6-fluoro-7-(3-hydroxyazetidin-1-yl)-1,4-dihydro-4-oxoquinoline-3-carboxylic acid.3-hydroxyazetidine salt]: the Phototoxicity frequency with female ICR mouse (0 hour after exposure), in the series on female ICR mouse (24 hours after exposure) and in the series with female ICR mouse (48 hours after exposure) was 0/4 each time. Further, the “Phototoxicity average score (ears)” value in the series on female ICR mouse (0 hour after exposure), in the series on female ICR mouse (24 hours after exposure) and in the series with female ICR mouse (48 hours after exposure) was 0 throughout. The “minimum growth inhibitory concentration (MIC)” value in the series on P. aeruginosa IFO3445 is 0.39 µg/mL; with E. coli NIHJ-JC2, 0.05 µg/mL; in the series with S. aureus Smith, 0.003 µg/mL; in the series with MRSA W200, 0.006 µg/mL; in the series with B. subtilis ATCC6633, 0.05 µg/mL; in the series on S. epidermidis IFO12293, 0.013 µg/mL. Moreover, the “minimum growth inhibitory concentration (MIC)” value came to 0.05 µg/mL in the series with K. peumoniae KC-1 and 0.006 µg/mL in the series with S. aureus 209P.
For the molecule `Nc1nc(-n2cc(C(=O)O)c(=O)c3cc(F)c(N4CC(O)C4)c(F)c32)c(F)cc1F` [Comparative compound 2, 1-(6-amino-3,5-difluoropyridin-2-yl)-6,8-difluoro-7-(3-hydroxyzetidin-1-yl)-1,4-dihydro-4-oxoquinoline-3-carboxylic acid], the Phototoxicity frequency in the series with female ICR mouse (0 hour after exposure), in the series on female ICR mouse (24 hours after exposure) and in the series on female ICR mouse (48 hours after exposure) was 0/4 each time. Moreover, the “Phototoxicity average score (ears)” value in the series with female ICR mouse (0 hour after exposure), in the series with female ICR mouse (24 hours after exposure) and in the series with female ICR mouse (48 hours after exposure) was 0 each time. The “minimum growth inhibitory concentration (MIC)” value was 0.39 µg/mL in the series with P. aeruginosa IFO3445; 0.10 µg/mL in the series on E. coli NIHJ-JC2; 0.006 µg/mL in the series with S. aureus Smith; 0.025 µg/mL with MRSA W200; 0.025 µg/mL in the series on B. subtilis ATCC6633; 0.050 µg/mL in the series on S. epidermidis IFO12293. The “minimum growth inhibitory concentration (MIC)” value with K. peumoniae KC-1 was determined as 0.10 µg/mL; in the series on S. aureus 209P, 0.013 µg/mL.
`Cc1c(N2CC(O)C2)c(F)cc2c(=O)c(C(=O)O)cn(-c3nc(N)c(F)cc3F)c12` [Compound 1, 1-(6-amino-3,5-difluoropyridin-2-yl)-6-fluoro-7-(3-hydroxyazetidin-1-yl)-8-methyl-1,4-dihydro-4-oxoquinoline-3-carboxylic acid]: the Phototoxicity frequency in the series on female ICR mouse (0 hour after exposure), in the series on female ICR mouse (24 hours after exposure) and with female ICR mouse (48 hours after exposure) was 0/4 in each case. Further, the “Phototoxicity average score (ears)” value in the series with female ICR mouse (0 hour after exposure), in the series with female ICR mouse (24 hours after exposure) and in the series on female ICR mouse (48 hours after exposure) was 0 in each case. The MIC was 0.39 µg/mL (≈ 0.928 µM) in the series on P. aeruginosa IFO3445; 0.05 µg/mL (≈ 0.119 µM) in the series on E. coli NIHJ-JC2; under 0.003 µg/mL in the series on S. aureus Smith; 0.013 µg/mL (≈ 0.0309 µM) in the series with MRSA W200; 0.025 µg/mL (≈ 0.0595 µM) with B. subtilis ATCC6633; 0.013 µg/mL (≈ 0.0309 µM) in the series on S. epidermidis IFO12293. Also, the MIC turned out to be 0.05 µg/mL (≈ 0.119 µM) in the series on K. peumoniae KC-1 and 0.006 µg/mL (≈ 0.0143 µM) in the series on S. aureus 209P. The “Photostability: decomposition by exposure to ultraviolet rays” value in [1] is listed as “hardly decomposed”.
Regarding `C[C@H]1COc2c(N3CCN(C)CC3)c(F)cc3c(=O)c(C(=O)O)cn1c23` [Levofloxacin, S-(−)-9-fluoro-2,3-dihydro-3-methyl-10-(4-methyl-1-piperazinyl)-7-oxo-7H-pyrido[1,2,3-de][1,4]-benzoxazine-6-carboxylic acid], the MIC with P. aeruginosa IFO3445 came to 0.78 µg/mL (≈ 2.16 µM); with E. coli NIHJ-JC2, 0.05 µg/mL (≈ 0.138 µM); with S. aureus Smith, 0.1 µg/mL (≈ 0.277 µM); in the series on MRSA W200 it was 0.39 µg/mL (≈ 1.08 µM); with B. subtilis ATCC6633 it was 0.1 µg/mL (≈ 0.277 µM); in the series on S. epidermidis IFO12293, 0.39 µg/mL (≈ 1.08 µM). Also, the MIC turned out to be 0.05 µg/mL (≈ 0.138 µM) with K. peumoniae KC-1 and 0.2 µg/mL (≈ 0.553 µM) with S. aureus 209P.
